From article PMC5731860, “Novel allylated monocarbonyl analogs of curcumin induce mitotic arrest and apoptosis by reactive oxygen species-mediated endoplasmic reticulum stress and inhibition of STAT3” (Oncotarget, 2017)

Tested on: HT-29
Assay: MTT assay, growth inhibition
Type: cell-based
Settings: Homo sapiens, HT-29, 24 h
Method: (§1) First, we investigated whether allylated MAC alter the viability or have cytotoxic effects on cells in culture. We have performed MTT tetrazolium reduction assay following exposure of cancer cells (gastric cancer, BGC823 and SGC-7901; colon cancer, HT-29, HCT-116 and SW-480) and normal gastric epithelial cells (GES-1) to all 20 allylated MAC at a concentration of 20 μM for 24 h. […] In addition, we also found notable solubility and stability profile of these compounds (Supplementary Figure 1).
(§2) Cells were plated at a density of 8 × 10^3 cells/well in 96-well plates and allowed to attach overnight. Stock solutions of allylated MAC and curcumin were prepared in DMSO and diluted in culture media to obtain appropriate concentration. Cells were treated for 24 h and 48 h, following which, 20 μL of 5 mg/ml MTT reagent was added. Purple formazan product was dissolved by the addition of 100 μL DMSO to each well. Absorbance was then monitored at 490 nm using a plate reader (Molecular Device Spectra MAX190, USA). Percentage of cytotoxicity was determined using the following formula: Growth inhibition (%) = (OD of control−OD of test/OD of control×100%).

Going from `C=CCc1cc(/C=C2\CN(CC)C/C(=C\c3ccc(O)c(CC=C)c3)C2=O)ccc1O` [CA1] to `C=CCc1cc(/C=C2\CN(CCC)C/C(=C\c3ccc(O)c(CC=C)c3)C2=O)ccc1O` [CA2], the inhibition at 20 µM rises from less than 60% to 67 ± 6.79%.

First: C=CCc1cc(/C=C2\CN(C3CC3)C/C(=C\c3ccc(O)c(CC=C)c3)C2=O)ccc1O [CA4]
Second: C=CCc1cc(/C=C2\CCC/C(=C\c3ccc(O)c(CC=C)c3)C2=O)ccc1O [CA7]
The inhibition at 20 µM of the first is lower: 74.3 ± 0.79% for the first, 79.5 ± 4.1% for the second.

Going from `C=CCc1cc(/C=C2\CN(S(=O)(=O)c3ccccc3)C/C(=C\c3ccc(O)c(CC=C)c3)C2=O)ccc1O` [CA5] to `C=CCc1cc(/C=C2\CN(Cc3ccccc3)C/C(=C\c3ccc(O)c(CC=C)c3)C2=O)ccc1O` [CA6], the inhibition at 20 µM rises from 71.2 ± 1.99% to 79.7 ± 3.11%.

`C=CCc1cc(/C=C2\COC/C(=C\c3ccc(O)c(CC=C)c3)C2=O)ccc1O` [CA8] and `C=CCc1cc(/C=C2\CSC/C(=C\c3ccc(O)c(CC=C)c3)C2=O)ccc1O` [CA9] are within error of each other in inhibition at 20 µM: 71.1 ± 2.6% for the first, 75.7 ± 2.18% for the second.

`C=CCc1cc(/C=C2\CN(C3CC3)C/C(=C\c3ccc(N4CCN(C)CC4)cc3)C2=O)ccc1O` [CA11] gave an inhibition at 20 µM of 63.3 ± 1.31%.

Tested on: GES-1
Assay: MTT assay, growth inhibition in normal gastric epithelial cells
Type: cell-based, human
Settings: 20 μM, 24 h
Method: as §1, §2

With `C=CCc1cc(/C=C2\CN(CC)C/C(=C\c3ccc(O)c(CC=C)c3)C2=O)ccc1O` [CA1] the “inhibition of the normal epithelial cells (selective cytotoxicity in cancer cell lines), in words” value was “minimal inhibition”.
For `C=CCc1cc(/C=C2\CN(Cc3ccccc3)C/C(=C\c3ccc(O)c(CC=C)c3)C2=O)ccc1O` [CA6], the “inhibition of the normal epithelial cells (selective cytotoxicity in cancer cell lines), in words” value was “minimal inhibition”.

Same assay, conditions: Homo sapiens, GES1, 24 h, normal gastric epithelial cells

Compared with `C=CCc1cc(/C=C2\CN(CC)C/C(=C\c3ccc(O)c(CC=C)c3)C2=O)ccc1O` [CA1], `C=CCc1cc(/C=C2\CN(CCC)C/C(=C\c3ccc(O)c(CC=C)c3)C2=O)ccc1O` [CA2] is higher in inhibition at 20 µM: 22.8 ± 3.04% for the first, 60.88 ± 0.41% for the second.

`C=CCc1cc(/C=C2\CN(C3CC3)C/C(=C\c3ccc(O)c(CC=C)c3)C2=O)ccc1O` [CA4] and `C=CCc1cc(/C=C2\CCC/C(=C\c3ccc(O)c(CC=C)c3)C2=O)ccc1O` [CA7] cannot be ordered by inhibition at 20 µM: 63.4 ± 2.67% for the first, greater than 60% for the second.

First: C=CCc1cc(/C=C2\CN(S(=O)(=O)c3ccccc3)C/C(=C\c3ccc(O)c(CC=C)c3)C2=O)ccc1O [CA5]
Second: C=CCc1cc(/C=C2\CN(Cc3ccccc3)C/C(=C\c3ccc(O)c(CC=C)c3)C2=O)ccc1O [CA6]
The inhibition at 20 µM of the first is higher: 63.8 ± 2.33% for the first, 22.6 ± 6.08% for the second.

Going from `C=CCc1cc(/C=C2\COC/C(=C\c3ccc(O)c(CC=C)c3)C2=O)ccc1O` [CA8] to `C=CCc1cc(/C=C2\CSC/C(=C\c3ccc(O)c(CC=C)c3)C2=O)ccc1O` [CA9], the inhibition at 20 µM rises from 27 ± 3.4% to greater than 60%.

`C=CCc1cc(/C=C2\CN(C3CC3)C/C(=C\c3ccc(N4CCN(C)CC4)cc3)C2=O)ccc1O` [CA11] showed an inhibition at 20 µM of 45.56 ± 0.39%.

Tested on: HCT-116
Assay: MTT assay, growth inhibition
Type: cell-based, human
Settings: 20 μM, 24 h
Method: as §1, §2

In order of falling “% Of growth inhibition HCT-116” value:
1. C=CCc1cc(/C=C2\CN(Cc3ccccc3)C/C(=C\c3ccc(O)c(CC=C)c3)C2=O)ccc1O [CA6]  72.58 ± 2.72%
2. C=CCc1cc(/C=C2\CN(C3CC3)C/C(=C\c3ccc(N4CCN(C)CC4)cc3)C2=O)ccc1O [CA11]  52.05 ± 1.91%
3. C=CCc1cc(/C=C2\CN(CC)C/C(=C\c3ccc(O)c(CC=C)c3)C2=O)ccc1O [CA1]  50.22 ± 7.62%
4. C=CCc1cc(/C=C2\CN(C3CC3)C/C(=C\c3ccc(O)c(CC=C)c3)C2=O)ccc1O [CA4]  44.18 ± 6.18%
5. C=CCc1cc(/C=C2\CN(S(=O)(=O)c3ccccc3)C/C(=C\c3ccc(O)c(CC=C)c3)C2=O)ccc1O [CA5]  43.04 ± 4.24%
6. C=CCc1cc(/C=C2\COC/C(=C\c3ccc(O)c(CC=C)c3)C2=O)ccc1O [CA8]  38.83 ± 4.23%

Same assay, conditions: Homo sapiens, HCT-116, 24 h

In order of falling inhibition at 20 µM:
1. C=CCc1cc(/C=C2\CN(Cc3ccccc3)C/C(=C\c3ccc(O)c(CC=C)c3)C2=O)ccc1O [CA6]  70%
2. C=CCc1cc(/C=C2\CSC/C(=C\c3ccc(O)c(CC=C)c3)C2=O)ccc1O [CA9]  67.3 ± 5.03%
3. C=CCc1cc(/C=C2\CCC/C(=C\c3ccc(O)c(CC=C)c3)C2=O)ccc1O [CA7]  67 ± 4.92%
4. C=CCc1cc(/C=C2\CN(CCC)C/C(=C\c3ccc(O)c(CC=C)c3)C2=O)ccc1O [CA2]  60.6 ± 0.98%
5. C=CCc1cc(/C=C2\CN(CC)C/C(=C\c3ccc(O)c(CC=C)c3)C2=O)ccc1O [CA1]  55%
6. C=CCc1cc(/C=C2\CN(C3CC3)C/C(=C\c3ccc(O)c(CC=C)c3)C2=O)ccc1O [CA4]  55%
7. C=CCc1cc(/C=C2\CN(S(=O)(=O)c3ccccc3)C/C(=C\c3ccc(O)c(CC=C)c3)C2=O)ccc1O [CA5]  55%
8. C=CCc1cc(/C=C2\COC/C(=C\c3ccc(O)c(CC=C)c3)C2=O)ccc1O [CA8]  55%
9. C=CCc1cc(/C=C2\CN(C3CC3)C/C(=C\c3ccc(N4CCN(C)CC4)cc3)C2=O)ccc1O [CA11]  55%

Tested on: SW-480
Assay: MTT assay, growth inhibition
Type: cell-based, human
Settings: Homo sapiens, SW480, 24 h
Method: as §1, §2

In order of rising inhibition at 20 µM:
1. C=CCc1cc(/C=C2\CN(C3CC3)C/C(=C\c3ccc(N4CCN(C)CC4)cc3)C2=O)ccc1O [CA11]  49.5 ± 6.47%
2. C=CCc1cc(/C=C2\CN(CC)C/C(=C\c3ccc(O)c(CC=C)c3)C2=O)ccc1O [CA1]  71.3 ± 3.35%
3. C=CCc1cc(/C=C2\CCC/C(=C\c3ccc(O)c(CC=C)c3)C2=O)ccc1O [CA7]  71.7 ± 1.15%
4. C=CCc1cc(/C=C2\CN(CCC)C/C(=C\c3ccc(O)c(CC=C)c3)C2=O)ccc1O [CA2]  76 ± 6.31%
5. C=CCc1cc(/C=C2\CN(S(=O)(=O)c3ccccc3)C/C(=C\c3ccc(O)c(CC=C)c3)C2=O)ccc1O [CA5]  77.1 ± 3.79%
6. C=CCc1cc(/C=C2\CSC/C(=C\c3ccc(O)c(CC=C)c3)C2=O)ccc1O [CA9]  78 ± 5.69%
7. C=CCc1cc(/C=C2\CN(Cc3ccccc3)C/C(=C\c3ccc(O)c(CC=C)c3)C2=O)ccc1O [CA6]  79.1 ± 4.2%
8. C=CCc1cc(/C=C2\COC/C(=C\c3ccc(O)c(CC=C)c3)C2=O)ccc1O [CA8]  79.3 ± 4.37%
9. C=CCc1cc(/C=C2\CN(C3CC3)C/C(=C\c3ccc(O)c(CC=C)c3)C2=O)ccc1O [CA4]  81 ± 5.36%

Tested on: BGC-823
Assay: MTT assay, growth inhibition / cell viability
Type: cell-based
Settings: Homo sapiens, BGC-823, 20 μM, 24 h
Method: as §1, §2

In order of falling inhibition at 20 µM:
1. C=CCc1cc(/C=C2\CCC/C(=C\c3ccc(O)c(CC=C)c3)C2=O)ccc1O [CA7]  71.2 ± 3.07%
2. C=CCc1cc(/C=C2\COC/C(=C\c3ccc(O)c(CC=C)c3)C2=O)ccc1O [CA8]  71.2 ± 1.07%
3. C=CCc1cc(/C=C2\CSC/C(=C\c3ccc(O)c(CC=C)c3)C2=O)ccc1O [CA9]  69.3 ± 3.13%
4. C=CCc1cc(/C=C2\CN(C3CC3)C/C(=C\c3ccc(O)c(CC=C)c3)C2=O)ccc1O [CA4]  67.06 ± 0.4%
5. C=CCc1cc(/C=C2\CN(Cc3ccccc3)C/C(=C\c3ccc(O)c(CC=C)c3)C2=O)ccc1O [CA6]  65.83 ± 0.52%
6. C=CCc1cc(/C=C2\CN(S(=O)(=O)c3ccccc3)C/C(=C\c3ccc(O)c(CC=C)c3)C2=O)ccc1O [CA5]  63.3 ± 5.52%
7. C=CCc1cc(/C=C2\CN(CCC)C/C(=C\c3ccc(O)c(CC=C)c3)C2=O)ccc1O [CA2]  63 ± 8.7%
8. C=CCc1cc(/C=C2\CN(C3CC3)C/C(=C\c3ccc(N4CCN(C)CC4)cc3)C2=O)ccc1O [CA11]  61.33 ± 0.48%
9. C=CCc1cc(/C=C2\CN(CC)C/C(=C\c3ccc(O)c(CC=C)c3)C2=O)ccc1O [CA1]  60.4 ± 0.62%

Tested on: SGC-7901
Assay: MTT assay, growth inhibition / cell viability
Type: cell-based
Settings: Homo sapiens, SGC-7901, 24 h, 20 μM, 24 h
Method: as §1, §2

Going from `C=CCc1cc(/C=C2\CN(CC)C/C(=C\c3ccc(O)c(CC=C)c3)C2=O)ccc1O` [CA1] to `C=CCc1cc(/C=C2\CN(CCC)C/C(=C\c3ccc(O)c(CC=C)c3)C2=O)ccc1O` [CA2], the inhibition at 20 µM rises from 66.1 ± 8.88% to 79.8 ± 0.9%.

Compared with `C=CCc1cc(/C=C2\CN(C3CC3)C/C(=C\c3ccc(O)c(CC=C)c3)C2=O)ccc1O` [CA4], `C=CCc1cc(/C=C2\CCC/C(=C\c3ccc(O)c(CC=C)c3)C2=O)ccc1O` [CA7] is higher in inhibition at 20 µM: 77.8 ± 1.98% for the first, greater than 80% for the second.

`C=CCc1cc(/C=C2\CN(S(=O)(=O)c3ccccc3)C/C(=C\c3ccc(O)c(CC=C)c3)C2=O)ccc1O` [CA5] and `C=CCc1cc(/C=C2\CN(Cc3ccccc3)C/C(=C\c3ccc(O)c(CC=C)c3)C2=O)ccc1O` [CA6] cannot be ordered by inhibition at 20 µM: greater than 80% for the first, greater than 80% for the second.

`C=CCc1cc(/C=C2\COC/C(=C\c3ccc(O)c(CC=C)c3)C2=O)ccc1O` [CA8] and `C=CCc1cc(/C=C2\CSC/C(=C\c3ccc(O)c(CC=C)c3)C2=O)ccc1O` [CA9] cannot be ordered by inhibition at 20 µM: greater than 80% for the first, greater than 80% for the second.

`C=CCc1cc(/C=C2\CN(C3CC3)C/C(=C\c3ccc(N4CCN(C)CC4)cc3)C2=O)ccc1O` [CA11] was tested, and the inhibition at 20 µM was 61 ± 4.97%.
